What was measured:
[1] = test system: late watergrass; assay: Test Example 1: herbicidal activity, application before weed generation under submerged conditions (Table 16, symbol A); format: in vivo, late watergrass (Echinochloa oryzicola); details: amount of applied herbicide 320 g/ha
Procedure, shortened: (§1)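 Alluvial soil was flooded to 4 cm depth, weed seeds were sown mixed and 2.5-leaf rice seedlings were transplanted. On sowing day, the compound's emulsion, diluted in water to a set dose, was applied to the water surface. Plants grew at 25–30 °C and were scored 0–5 after three weeks.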

[2] = test system: Japanese bulrush; assay: Test Example 1: herbicidal activity, application before weed generation under submerged conditions (Table 16, symbol B); format: in vivo, Japanese bulrush (Schoenoplectus juncoides); details: amount of applied herbicide 320 g/ha
Procedure, shortened: as §1

[3] = test system: oval-leafed pondweed; assay: Test Example 1: herbicidal activity, application before weed generation under submerged conditions (Table 16, symbol C); format: in vivo, oval-leafed pondweed (Monochoria vaginalis); details: amount of applied herbicide 320 g/ha
Procedure, shortened: as §1

[4] = test system: barnyard grass; assay: Test Example 3: herbicidal effect by foliage application, Wagner pot (Table 18, symbol H); format: in vivo, barnyard grass (Echinochloa crus-galli); details: 320 g/ha
Procedure, shortened: (§2)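 Plants were sown in alluvial soil held under 0.1–0.5 cm standing water and grown 14 days in a greenhouse at 25–30 °C. An emulsifiable formulation, water-diluted to the set dose, was then sprayed onto the foliage, and effects were scored three weeks later using previously defined criteria.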

[5] = test system: Chinese sprangletop; assay: Test Example 3: herbicidal effect by foliage application, Wagner pot (Table 18, symbol D); format: in vivo, chinese sprangletop (Leptochloa chinensis); details: 320 g/ha
Procedure, shortened: as §2

[6] = test system: rice flat sedge; assay: Test Example 3: herbicidal effect by foliage application, Wagner pot (Table 18, symbol E); format: in vivo, rice flat sedge (Cyperus iria); details: 320 g/ha
Procedure, shortened: as §2

[7] = test system: southern crabgrass; assay: Test Example 4: herbicidal effect by soil treatment (Table 19, symbol F); format: in vivo, southern crabgrass (Digitaria ciliaris); details: amount of applied herbicide 320 g/ha
Procedure, shortened: (§3)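 Pre-emergence style soil spray: seeds under ~1.5 cm sterilized diluvial soil received a uniform coat of emulsion diluted to the predetermined herbicide amount. Greenhouse 25–30° C; readout at week three on previously defined criteria.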

[8] = test system: green foxtail; assay: Test Example 4: herbicidal effect by soil treatment (Table 19, symbol G); format: in vivo, green foxtail (Setaria viridis); details: amount of applied herbicide 320 g/ha
Procedure, shortened: as §3

[9] = test system: barnyard grass; assay: Test Example 4: herbicidal effect by soil treatment (Table 19, symbol H); format: in vivo, barnyard grass (Echinochloa crus-galli); details: amount of applied herbicide 320 g/ha
Procedure, shortened: as §3

[10] = test system: wild oat; assay: Test Example 4: herbicidal effect by soil treatment (Table 19, symbol I); format: in vivo, wild oat (Avena fatua); details: amount of applied herbicide 320 g/ha
Procedure, shortened: as §3

[11] = test system: blackgrass; assay: Test Example 4: herbicidal effect by soil treatment (Table 19, symbol J); format: in vivo, blackgrass (Alopecurus myosuroides); details: amount of applied herbicide 320 g/ha
Procedure, shortened: as §3

[12] = test system: Italian ryegrass; assay: Test Example 4: herbicidal effect by soil treatment (Table 19, symbol K); format: in vivo, Italian ryegrass (Lolium multiflorum); details: amount of applied herbicide 320 g/ha
Procedure, shortened: as §3

[13] = test system: windgrass; assay: Test Example 4: herbicidal effect by soil treatment (Table 19, symbol L); format: in vivo, windgrass (Apera spica-venti); details: amount of applied herbicide 320 g/ha
Procedure, shortened: as §3

[14] = test system: velvetleaf; assay: Test Example 4: herbicidal effect by soil treatment (Table 19, symbol M); format: in vivo, velvetleaf (Abutilon theophrasti); details: amount of applied herbicide 320 g/ha
Procedure, shortened: as §3

[15] = test system: redroot pigweed; assay: Test Example 4: herbicidal effect by soil treatment (Table 19, symbol N); format: in vivo, redroot pigweed (Amaranthus retroflexus); details: amount of applied herbicide 320 g/ha
Procedure, shortened: as §3

[16] = test system: lambsquarters; assay: Test Example 4: herbicidal effect by soil treatment (Table 19, symbol O); format: in vivo, lambsquarters (Chenopodium album); details: amount of applied herbicide 320 g/ha
Procedure, shortened: as §3

[17] = test system: chickweed; assay: Test Example 4: herbicidal effect by soil treatment (Table 19, symbol P); format: in vivo, common chickweed (Stellaria media); details: amount of applied herbicide 320 g/ha
Procedure, shortened: as §3

[18] = test system: false cleavers; assay: Test Example 4: herbicidal effect by soil treatment (Table 19, symbol Q); format: in vivo, false cleavers (Galium spurium); details: amount of applied herbicide 320 g/ha
Procedure, shortened: as §3

[19] = test system: persian speedwell; assay: Test Example 4: herbicidal effect by soil treatment (Table 19, symbol R); format: in vivo, Persian speedwell (Veronica persica); details: amount of applied herbicide 320 g/ha
Procedure, shortened: as §3

[20] = test system: southern crabgrass; assay: Test Example 5: herbicidal effect by foliage application, plastic box (Table 20, symbol F); format: in vivo, southern crabgrass (Digitaria ciliaris); details: amount of applied herbicide 320 g/ha; foliage application after 14-day growth; evaluated three weeks after application
Procedure, shortened: (§4)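 Plants were sown into sterilized diluvial soil under about 1.5 cm cover and kept in a greenhouse at 25° C. to 30° C. Fourteen days on, foliage received an even spray of the diluted emulsion. Herbicidal or crop effect was judged three weeks afterwards.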

[21] = test system: green foxtail; assay: Test Example 5: herbicidal effect by foliage application, plastic box (Table 20, symbol G); format: in vivo, green foxtail (Setaria viridis); details: amount of applied herbicide 320 g/ha; foliage application after 14-day growth; evaluated three weeks after application
Procedure, shortened: as §4

[22] = test system: barnyard grass; assay: Test Example 5: herbicidal effect by foliage application, plastic box (Table 20, symbol H); format: in vivo, barnyard grass (Echinochloa crus-galli); details: amount of applied herbicide 320 g/ha; foliage application after 14-day growth; evaluated three weeks after application
Procedure, shortened: as §4

[23] = test system: wild oat; assay: Test Example 5: herbicidal effect by foliage application, plastic box (Table 20, symbol I); format: in vivo, wild oat (Avena fatua); details: amount of applied herbicide 320 g/ha; foliage application after 14-day growth; evaluated three weeks after application
Procedure, shortened: as §4

[24] = test system: blackgrass; assay: Test Example 5: herbicidal effect by foliage application, plastic box (Table 20, symbol J); format: in vivo, blackgrass (Alopecurus myosuroides); details: amount of applied herbicide 320 g/ha; foliage application after 14-day growth; evaluated three weeks after application
Procedure, shortened: as §4

[25] = test system: Italian ryegrass; assay: Test Example 5: herbicidal effect by foliage application, plastic box (Table 20, symbol K); format: in vivo, Italian ryegrass (Lolium multiflorum); details: amount of applied herbicide 320 g/ha; foliage application after 14-day growth; evaluated three weeks after application
Procedure, shortened: as §4

[26] = test system: windgrass; assay: Test Example 5: herbicidal effect by foliage application, plastic box (Table 20, symbol L); format: in vivo, windgrass (Apera spica-venti); details: amount of applied herbicide 320 g/ha; foliage application after 14-day growth; evaluated three weeks after application
Procedure, shortened: as §4

[27] = test system: velvetleaf; assay: Test Example 5: herbicidal effect by foliage application, plastic box (Table 20, symbol M); format: in vivo, velvetleaf (Abutilon theophrasti); details: amount of applied herbicide 320 g/ha; foliage application after 14-day growth; evaluated three weeks after application
Procedure, shortened: as §4

[28] = test system: redroot pigweed; assay: Test Example 5: herbicidal effect by foliage application, plastic box (Table 20, symbol N); format: in vivo, redroot pigweed (Amaranthus retroflexus); details: amount of applied herbicide 320 g/ha; foliage application after 14-day growth; evaluated three weeks after application
Procedure, shortened: as §4

[29] = test system: lambsquarters; assay: Test Example 5: herbicidal effect by foliage application, plastic box (Table 20, symbol O); format: in vivo, lambsquarters (Chenopodium album); details: amount of applied herbicide 320 g/ha; foliage application after 14-day growth; evaluated three weeks after application
Procedure, shortened: as §4

[30] = test system: chickweed; assay: Test Example 5: herbicidal effect by foliage application, plastic box (Table 20, symbol P); format: in vivo, common chickweed (Stellaria media); details: amount of applied herbicide 320 g/ha; foliage application after 14-day growth; evaluated three weeks after application
Procedure, shortened: as §4

[31] = test system: persian speedwell; assay: Test Example 5: herbicidal effect by foliage application, plastic box (Table 20, symbol R); format: in vivo, Persian speedwell (Veronica persica); details: amount of applied herbicide 320 g/ha; foliage application after 14-day growth; evaluated three weeks after application
Procedure, shortened: as §4

CCCC(=O)Oc1c(C)nn(C)c(=O)c1-c1c(-c2ccc3c(c2)OCO3)sc2cc(F)c(F)cc12 [5-036]
Herbicidal effect, A: late watergrass [1]: 2 (Herbicidal rate of 20% or more and less than 40%) | Herbicidal effect, B: Japanese bulrush [2]: 2 (Herbicidal rate of 20% or more and less than 40%) | Herbicidal effect, C: oval-leafed pondweed [3]: 2 (Herbicidal rate of 20% or more and less than 40%) | herbicidal effect on barnyard grass (H) [4]: 2 (Herbicidal rate of 20% or more and less than 40%) | herbicidal effect on Chinese sprangletop (D) [5]: 0 (Herbicidal rate of 5% or less (almost no effect)) | herbicidal effect on rice flat sedge (E) [6]: 0 (Herbicidal rate of 5% or less (almost no effect)) | F: southern crabgrass, herbicidal effect grade [7]: 0 (Herbicidal rate of 5% or less (almost no effect)) | G: green foxtail, herbicidal effect grade [8]: 1 (Herbicidal rate of 5% or more and less than 20%) | H: barnyard grass, herbicidal effect grade [9]: 0 (Herbicidal rate of 5% or less (almost no effect)) | I: wild oat, herbicidal effect grade [10]: 0 (Herbicidal rate of 5% or less (almost no effect)) | J: blackgrass, herbicidal effect grade [11]: 0 (Herbicidal rate of 5% or less (almost no effect)) | K: Italian ryegrass, herbicidal effect grade [12]: 0 (Herbicidal rate of 5% or less (almost no effect)) | L: windgrass, herbicidal effect grade [13]: 0 (Herbicidal rate of 5% or less (almost no effect)) | M: velvetleaf, herbicidal effect grade [14]: 0 (Herbicidal rate of 5% or less (almost no effect)) | N: redroot pigweed, herbicidal effect grade [15]: 4 (Herbicidal rate of 70% or more and less than 90%) | O: lambsquarters, herbicidal effect grade [16]: 3 (Herbicidal rate of 40% or more and less than 70%) | P: chickweed, herbicidal effect grade [17]: 3 (Herbicidal rate of 40% or more and less than 70%) | Q: false cleavers, herbicidal effect grade [18]: 0 (Herbicidal rate of 5% or less (almost no effect)) | R: persian speedwell, herbicidal effect grade [19]: 3 (Herbicidal rate of 40% or more and less than 70%) | Herbicidal effect by foliage application, F: southern crabgrass [20]: 0 (Herbicidal rate of 5% or less (almost no effect)) | Herbicidal effect by foliage application, G: green foxtail [21]: 0 (Herbicidal rate of 5% or less (almost no effect)) | Herbicidal effect by foliage application, H: barnyard grass [22]: 0 (Herbicidal rate of 5% or less (almost no effect)) | Herbicidal effect by foliage application, I: wild oat [23]: 0 (Herbicidal rate of 5% or less (almost no effect)) | Herbicidal effect by foliage application, J: blackgrass [24]: 0 (Herbicidal rate of 5% or less (almost no effect)) | Herbicidal effect by foliage application, K: Italian ryegrass [25]: 0 (Herbicidal rate of 5% or less (almost no effect)) | Herbicidal effect by foliage application, L: windgrass [26]: 0 (Herbicidal rate of 5% or less (almost no effect)) | Herbicidal effect by foliage application, M: velvetleaf [27]: 3 (Herbicidal rate of 40% or more and less than 70%) | Herbicidal effect by foliage application, N: redroot pigweed [28]: 1 (Herbicidal rate of 5% or more and less than 20%) | Herbicidal effect by foliage application, O: lambsquarters [29]: 3 (Herbicidal rate of 40% or more and less than 70%) | Herbicidal effect by foliage application, P: chickweed [30]: 5 (Herbicidal rate of 90% or more (almost completely withered)) | Herbicidal effect by foliage application, R: persian speedwell [31]: 5 (Herbicidal rate of 90% or more (almost completely withered))

Source: US20230085307A1, “PYRIDAZINONE COMPOUND AND HERBICIDE” (NISSAN CHEMICAL CORPORATION, priority 2019, published 2023)
